# Patent publication US20240109885A1, “2,3-DIHYDRO-1H-PYRROLO[3,2-B]PYRIDINE DERIVATIVE, PREPARATION METHOD THEREFOR, AND APPLICATION THEREOF” (Abbisko Therapeutics Co., Ltd, priority 2020, published 2024)
# How the values were obtained:
# Assay type in all cases: cell-based
# [1] = biological target: Ba/F3 EGFR-D770-N771ins_SVD (Homo sapiens, UniProt P00533, DUP768-770, cells depend on it); assay: Cell proliferation assay (CellTiter-Glo), Ba/F3 EGFR-D770-N771ins_SVD cells; conditions: 72 hrs, CTG assay, * = average of multiple measurements, read-out: Ba/F3 EGFR-D770-N771ins_SVD (nM), IC50 of cell proliferation
# Chain of Ba/F3 EGFR-D770-N771ins_SVD (P00533 with tags, fused parts or gaps DUP768-770): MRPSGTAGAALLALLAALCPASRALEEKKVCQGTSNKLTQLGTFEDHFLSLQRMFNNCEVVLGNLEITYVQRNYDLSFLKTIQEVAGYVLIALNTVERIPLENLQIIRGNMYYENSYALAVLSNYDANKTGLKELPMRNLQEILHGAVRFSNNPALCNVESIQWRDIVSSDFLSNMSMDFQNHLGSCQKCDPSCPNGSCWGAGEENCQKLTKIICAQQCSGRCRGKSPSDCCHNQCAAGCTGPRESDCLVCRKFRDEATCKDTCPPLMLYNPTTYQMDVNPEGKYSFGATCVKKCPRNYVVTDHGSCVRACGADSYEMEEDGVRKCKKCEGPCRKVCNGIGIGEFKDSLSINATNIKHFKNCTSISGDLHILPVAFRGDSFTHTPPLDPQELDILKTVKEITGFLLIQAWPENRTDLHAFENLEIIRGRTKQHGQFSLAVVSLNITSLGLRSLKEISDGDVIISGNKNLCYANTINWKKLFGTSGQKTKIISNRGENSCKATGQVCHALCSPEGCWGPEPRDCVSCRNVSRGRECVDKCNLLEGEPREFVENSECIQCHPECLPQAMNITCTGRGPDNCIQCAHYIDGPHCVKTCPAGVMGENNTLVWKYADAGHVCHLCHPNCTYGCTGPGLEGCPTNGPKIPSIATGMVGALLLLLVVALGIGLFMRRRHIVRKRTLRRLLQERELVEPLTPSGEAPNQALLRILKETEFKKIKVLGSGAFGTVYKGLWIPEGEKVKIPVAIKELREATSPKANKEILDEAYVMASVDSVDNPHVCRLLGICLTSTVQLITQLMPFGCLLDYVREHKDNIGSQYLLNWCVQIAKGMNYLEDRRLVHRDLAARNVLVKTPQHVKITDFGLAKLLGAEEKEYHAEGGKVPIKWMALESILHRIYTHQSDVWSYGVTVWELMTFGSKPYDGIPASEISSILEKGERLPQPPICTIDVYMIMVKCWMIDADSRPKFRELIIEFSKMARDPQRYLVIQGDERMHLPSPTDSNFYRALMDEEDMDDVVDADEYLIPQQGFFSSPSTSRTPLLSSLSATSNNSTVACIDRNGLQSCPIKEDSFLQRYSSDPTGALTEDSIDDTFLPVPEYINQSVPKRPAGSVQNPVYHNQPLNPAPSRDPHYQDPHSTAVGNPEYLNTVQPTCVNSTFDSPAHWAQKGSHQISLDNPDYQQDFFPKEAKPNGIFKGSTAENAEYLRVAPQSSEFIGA
# Method: (§1) I. Cell proliferation assay (i) Reagents and consumables • Fetal bovine serum (FBS) (GBICO, Cat #10099-141); • CellTiter-Glo® Luminescent Cell Viability Assay Kit (Promega, Cat #G7572); • Black transparent flat-bottomed 96-well plate (Corning®, Cat #3603).
# (§2) • SpectraMax Multi-Label Microplate Detector MD, 2104-0010A; • CO2 incubator, Thermo Scientific 3100 Series; • Biosafety cabinet, Thermo Scientific, 1300 Series type A2; • Inverted microscope, Olympus, CKX41SF; • Siemens refrigerator KK25E76TI. (iii) Cell lines and culture conditions
# (§3) (iv) Experimental procedures 1. Cell culture and seeding: • (1) Cells in the logarithmic growth phase were harvested, and counted using a platelet counter. Cell viability was detected by the trypan blue exclusion assay to ensure that the cell viability was above 90%. • (2) The cell concentration was adjusted to achieve the final density; and 90 μL of the cell suspension was added to the 96-well plate. • (3) The cells were incubated in the 96-well plate overnight at 37° C. in the presence of 5% CO2 with 95% humidity. 2. TO benchmark data: • (1) 10 μL of PBS was added to each well of the TO flat plate containing the cells. • (2) The CTG reagent was thawed, and the cell plate was equilibrated to room temperature for 30 min. • (3) An equal volume of CTG solution was added to each well. • (4) The cells were shaken for 5 min on an orbital shaker for lysis. • (5) The cell plate was left at room temperature for 20 min to stabilize luminescent signals. • (6) The values of TO luminescent signals were read. 3. Compound dilution and addition • (1) According to the compound information table, a corresponding volume of DMSO was added to the corresponding compound powder to prepare a 10 mM stock solution. • (2) Compound solutions diluted at 1000 fold and 3.16 fold were prepared. • (3) The compound solution diluted at 1000 fold was diluted at 100 fold with PBS, to prepare the compound solutions at 10 fold in 9 concentrations, with the maximum concentration of […]; and the compound solution was diluted at 3.16 fold. 10 μL of medicament solution was added to each well of the seeded 96-well plate. Three replicate wells were provided for each concentration of the compound, and the final concentration of DMSO was 0.1%. • (4) Cells were placed in the 96-well plate containing the medicament and subsequently cultured for 72 hrs at 37° C. in the presence of 5% CO2 with 95% humidity, and then, CTG assay was conducted. 4. Reading of luminescent signals • (1) The CTG reagent was thawed, and the cell plate was equilibrated to room temperature for 30 min. • (2) An equal volume of CTG solution was added to each well. • (3) The cells were shaken for 5 min on an orbital shaker for lysis.
# (§4) (4) The cell plate was left at room temperature for 20 min to stabilize the luminescent signals. • (5) Luminescent values were read. Data processing
# (§5) The data were analyzed using software GraphPad Prism 7.0, and fitted by the nonlinear S-curve regression to obtain a dose-effect curve, based on which the IC50 value (unit: nM) was calculated, with the specific test results shown in Table 1.
# (§6) Cell viability (%)=(Lum test medicament-Lum culture medium control)/(Lum cell control-Lum culture medium control)×100%.
# [2] = tested on: A431 (EGFR-WT); assay: Cell proliferation assay (CellTiter-Glo), A431 cells; conditions: Homo sapiens, A-431, 72 hrs, CTG assay, * = average of multiple measurements
# Method: as §1, §2, §3, §4, §5, §6
# [3] = biological target: Ba/F3 EGFR-V769_D770insASV (Homo sapiens, UniProt P00533, DUP767-769, cells depend on it); assay: Cell proliferation assay (CellTiter-Glo), Ba/F3 EGFR-V769_D770insASV cells; conditions: 72 hrs, CTG assay, * = average of multiple measurements, read-out: Ba/F3 EGFR-V769_D770insASV (nM), IC50 of cell proliferation
# Chain of Ba/F3 EGFR-V769_D770insASV (P00533 with tags, fused parts or gaps DUP767-769): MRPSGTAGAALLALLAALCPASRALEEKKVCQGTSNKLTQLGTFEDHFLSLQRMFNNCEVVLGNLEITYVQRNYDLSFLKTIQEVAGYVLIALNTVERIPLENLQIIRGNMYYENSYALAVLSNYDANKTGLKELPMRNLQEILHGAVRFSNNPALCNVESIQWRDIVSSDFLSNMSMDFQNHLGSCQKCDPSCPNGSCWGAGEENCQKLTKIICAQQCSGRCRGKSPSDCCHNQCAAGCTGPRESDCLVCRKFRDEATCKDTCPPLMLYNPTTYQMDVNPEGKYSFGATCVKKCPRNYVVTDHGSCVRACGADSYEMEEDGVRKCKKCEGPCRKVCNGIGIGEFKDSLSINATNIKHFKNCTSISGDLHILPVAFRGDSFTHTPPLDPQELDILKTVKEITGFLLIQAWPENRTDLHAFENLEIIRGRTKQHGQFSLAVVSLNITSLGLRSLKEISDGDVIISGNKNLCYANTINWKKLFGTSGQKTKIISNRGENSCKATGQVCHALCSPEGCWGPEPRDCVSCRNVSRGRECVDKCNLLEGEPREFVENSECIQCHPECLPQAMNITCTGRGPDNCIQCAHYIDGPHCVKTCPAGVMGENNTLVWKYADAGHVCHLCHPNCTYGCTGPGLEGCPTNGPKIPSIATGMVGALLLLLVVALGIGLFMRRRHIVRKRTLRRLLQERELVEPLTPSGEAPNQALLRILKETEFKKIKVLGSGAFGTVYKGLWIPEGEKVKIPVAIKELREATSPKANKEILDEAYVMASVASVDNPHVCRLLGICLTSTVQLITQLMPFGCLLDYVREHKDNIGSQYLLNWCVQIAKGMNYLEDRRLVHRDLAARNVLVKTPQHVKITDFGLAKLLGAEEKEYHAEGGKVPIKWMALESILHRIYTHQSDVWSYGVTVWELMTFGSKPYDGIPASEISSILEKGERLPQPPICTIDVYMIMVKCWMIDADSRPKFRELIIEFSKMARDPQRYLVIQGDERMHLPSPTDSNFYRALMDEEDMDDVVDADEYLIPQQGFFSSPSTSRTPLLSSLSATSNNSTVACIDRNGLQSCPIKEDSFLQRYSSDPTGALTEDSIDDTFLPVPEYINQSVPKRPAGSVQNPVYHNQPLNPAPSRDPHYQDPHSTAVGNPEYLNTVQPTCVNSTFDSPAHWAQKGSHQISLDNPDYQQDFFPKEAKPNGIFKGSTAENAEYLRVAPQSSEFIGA
# Method: as §1, §2, §3, §4, §5, §6
smiles,measurement,setting,value
"C#Cc1ccc2c(n1)C(C)(C)CN2c1ccnc(Nc2cc(NC(=O)C=C)c(N(C)CCN(C)C)cc2OC(F)F)n1 [Example 68, N-(4-(difluoromethoxy)-2-((2-(dimethylamino)ethyl)(methyl)ami-no)-5-((4-(5-ethynyl-3,3-dimeth-yl-2,3-dihydro-1H-pyrrolo[3,2-b]pyridin-1-yl)pyrimidin-2-yl)amino)phenyl)acrylamide]",GI50,[1],6.5 nM
same,IC50,[2],673 nM
same,GI50,[3],17.1 nM
"C=CC(=O)Nc1cc(Nc2cc(N3CC(C)(C)c4nc(C)ccc43)ncn2)c(OC)cc1N(C)CCN(C)C [Example 11, N-(2-((2-(dimethylamino)ethyl) (methyl)amino)-4-methoxy-5-((6-(3,3,5-trimethyl-2,3-dihydro-1H-pyrrolo[3,2-b]pyridin-1-yl)pyrimidin-4-yl)amino)phenyl)acrylamide]",GI50,[1],40.4 nM
same,IC50,[2],293 nM
same,GI50,[3],73.9 nM
"C=CC(=O)Nc1cc(Nc2nccc(N3CC(C)(C)c4nc(C)c(C)cc43)n2)c(OC)cc1N(C)CCN(C)C [Example 21, N-(2-((2-(dimethylamino)ethyl) (methyl)amino)-4-methoxy-5-((4-(3,3,5,6-tetramethyl-2,3-dihydro-1H-pyrrolo[3,2-b]pyridin-1-yl)pyrimidin-2-yl)amino)phenyl)acrylamide]",GI50,[1],3.8 nM
same,IC50,[2],80.4 nM
same,GI50,[3],19 nM
"C=CC(=O)Nc1cc(Nc2nccc(N3CC4(CCC4)c4ncccc43)n2)c(OCC(F)(F)F)nc1N(C)CCN(C)C [Example 57, N-(2-((2-(dimethylamino)ethyl) (methyl)amino)-5-((4-(spiro[cyclo-butane-1,3′-pyrrolo[3,2-b]pyridin]-1′(2′H)-yl)pyrimidin-2-yl)amino)-6-(2,2,2-trifluoroethoxy)pyridin-3-yl)acrylamide]",GI50,[1],32.7 nM
same,IC50,[2],673 nM
same,GI50,[3],79.7 nM
"C=CC(=O)Nc1cc(Nc2nccc(N3CC(C)(C)c4nc(C)ccc43)n2)c(OCC)cc1N(C)CCN(C)C [Example 24, N-(2-((2-(dimethylamino)ethyl) (methyl)amino)-4-ethoxy-5-((4-(3,3,5-trimethyl-2,3-dihydro-1H-pyrrolo[3,2-b]pyridin-1-yl)pyrimidin-2-yl)amino)phenyl)acrylamide]",GI50,[1],25.4 nM
same,IC50,[2],850 nM
same,GI50,[3],44.3 nM
"C=CC(=O)Nc1cc(Nc2nccc(N3CC4(CCCCC4)c4nc(C)ccc43)n2)c(OC)cc1N(C)CCN(C)C [Example 32, N-(2-((2-(dimethylamino)ethyl) (methyl)amino)-4-methoxy-5-((4-(5′-methylspiro[cyclohexane-1,3′-pyrrolo[3,2-b]pyridin]-1′(2′H)-yl)pyrimidin-2-yl)amino)phenyl)acrylamide]",GI50,[1],35.7 nM
same,IC50,[2],53.7 nM
same,GI50,[3],95.8 nM
"C=CC(=O)Nc1cc(Nc2nccc(N3CC4(CCC4)c4nc(C)ccc43)n2)c(OC)cc1N(C)CCN(C)C [Example 52, N-(2-((2-(dimethylamino)ethyl) (methyl)amino)-4-methoxy-5-((4-(5′-methylspiro[cyclobutane-1,3′-pyrrolo[3,2-b]pyridin]-1′(2′H)-yl)pyrimidin-2-yl)amino)phenyl) acrylamide]",GI50,[1],32.9 nM
same,IC50,[2],189 nM
same,GI50,[3],54.2 nM
"C=CC(=O)Nc1cc(Nc2nccc(N3CC(C)(C)c4nc(C)ccc43)n2)c(OC(F)F)cc1N(C)CCN(C)C [Example 47, N-(4-(difluoromethoxy)-2-((2-(dimethylamino)ethyl)(methyl)amino)-5-((4-(3,3,5-trimethyl-2,3-dihydro-1H-pyrrolo[3,2-b]pyridin-1-yl)pyrimidin-2-yl)amino)phenyl) acrylamide]",GI50,[1],12.9 nM
same,IC50,[2],378 nM
same,GI50,[3],5.6 nM
"C#Cc1ccc2c(n1)C(C)(C)CN2c1ccnc(Nc2cc(NC(=O)C=C)c(N(C)CCN(C)C)cc2OC)n1 [Example 54, N-(2-((2-(dimethylamino)ethyl)(methyl)amino)-5-((4-(5-ethynyl-3,3-dimethyl-2,3-dihydro-1H-pyrrolo[3,2-b]pyridin-1-yl)pyrimidin-2-yl)amino)-4-methoxyphenyl)acrylamide]",GI50,[1],17.8 nM
same,IC50,[2],72.9 nM
same,GI50,[3],30.6 nM
"C=CC(=O)Nc1cc(Nc2cc(N3CC(C)(C)c4ncccc43)ccn2)c(OC)cc1N1CCC[C@@H]1CN(C)C [Example 4, (R)-N-(5-((4-(3,3-dimethyl-2,3-dihydro-1H-pyrrolo[3,2-b]pyridin-1-yl)pyridin-2-yl)amino)-2-(2-((dimethylamino)methyl)pyrrolidin-1-yl)-4-methoxyphenyl)acrylamide]",GI50,[1],47.2 nM
same,IC50,[2],964 nM
same,GI50,[3],83.1 nM
"C=CC(=O)Nc1cc(Nc2nccc(N3CC4(CCCC4)c4nc(C)ccc43)n2)c(OC)cc1N(C)CCN(C)C [Example 33, N-(2-((2-(dimethylamino)ethyl) (methyl)amino)-4-methoxy-5-((4-(5′-methylspiro[cyclopentane-1,3′-pyrrolo[3,2-b]pyridin]-1′(2′H)-yl)pyrimidin-2-yl)amino)phenyl)acrylamide]",GI50,[1],35.5 nM
same,IC50,[2],264 nM
same,GI50,[3],84.3 nM
"C=CC(=O)Nc1cc(Nc2nccc(N3CC(C)(C)c4nc(C5CC5)ccc43)n2)c(OC)cc1N(C)CCN(C)C [Example 17, N-(5-((4-(5-cyclopropyl-3,3-dimethyl-2,3-dihydro-1H-pyrrolo[3,2-b]pyridin-1-yl)pyrimidin-2-yl)amino)-2-((2-(dimethylamino)ethyl) (methyl)amino)-4-methoxyphenyl) acrylamide]",GI50,[1],33.9 nM
same,IC50,[2],125 nM
same,GI50,[3],54.6 nM
"C=CC(=O)Nc1cc(Nc2nccc(N3CC(C)(C)c4nc(-n5cnc(C)c5)ccc43)n2)c(OC)cc1N(C)CCN(C)C [Example 60, N-(5-((4-(3,3-dimethyl-5-(4-methyl-1H-imidazole-1-yl)-2,3-dihydro-1H-pyrrolo[3,2-b]pyridin-1-yl)pyrimidin-2-yl)amino)-2-((2-(dimethylamino)ethyl)(methyl)amino)-4-methoxyphenyl)acrylamide]",GI50,[1],34.5 nM
same,IC50,[2],747 nM
same,GI50,[3],110 nM
"C=CC(=O)Nc1cc(Nc2nccc(N3CC(C)(C)c4nc(C5CC5)ccc43)n2)c(OC(F)F)cc1N(C)CCN(C)C [Example 46, N-(5-((4-(5-cyclopropyl-3,3-dimethyl-2,3-dihydro-1H-pyrrolo[3,2-b]pyridin-1-yl)pyrimidin-2-yl)amino)-4-(difluoromethoxy)-2-((2-(dimethylamino)ethyl)(methyl)amino)phenyl)acrylamide]",GI50,[1],22.6 nM
same,IC50,[2],402 nM
same,GI50,[3],21.6 nM
"C=CC(=O)Nc1cc(Nc2ncnc(N3CC4(CCCCC4)c4nc(C)ccc43)n2)c(OC)cc1N(C)CCN(C)C [Example 31, N-(2-((2-(dimethylamino)ethyl) (methyl)amino)-4-methoxy-5-((4-(5′-methylspiro[cyclohexane-1,3′-pyrrolo[3,2-b]pyridin]-1′(2′H)-yl)-1,3,5-triazin-2-yl)amino)phenyl)acrylamide]",GI50,[1],13 nM
same,IC50,[2],11.1 nM
same,GI50,[3],33 nM
"C=CC(=O)Nc1cc(Nc2cc(N3CC(C)(C)c4nc(C)ccc43)ccn2)c(OC)cc1N(C)CCN(C)C [Example 2, N-(2-((2-(dimethylamino)ethyl) (methyl)amino)-4-methoxy-5-((4-(3,3,5-trimethyl-2,3-dihydro-1H-pyrrolo[3,2-b]pyridin-1-yl)pyridin-2-yl)amino)phenyl)acrylamide]",GI50,[1],60.4 nM
same,IC50,[2],1070 nM
same,GI50,[3],97.9 nM
